# Measurements as given in article PMC8318231, “Rate-of-Kill (RoK) assays to triage large compound sets for Chagas disease drug discovery: Application to GSK Chagas Box” (PLoS Neglected Tropical Diseases, 2021).
# Experiments:
# [1] = system: T. cruzi Tulahuen trypomastigotes; experiment: T. cruzi trypomastigote assay (Cell Titer-Glo viability, ATP luminescence); assay type: cell-based, Trypanosoma cruzi; conditions: for Trypomastigotes pIC50 48 hours: 48 hours incubation; for Trypomastigotes pIC50 48 hours / Trypomastigotes pIC50 72 hours: pIC50 = -log10 IC50 in molar units; for Trypomastigotes pIC50 72 hours: 72 hours incubation; for 72 pIC50 (trypomastigotes, raw data of Fig 1D): 72 hours, plotted values, censored values given without sign; for 48 pIC50 / 72 pIC50: trypomastigote assay; for 48 pIC50: 48 h; for 72 pIC50: 72 h
# How it was run: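 Compounds were tested in dose response or once at a final 5 μM against 5 × 10^4 trypomastigotes per well (DMEM, 2% FBS), collected on days 5–8 from LLC-MK2 infected cultures. ATP luminescence via CellTiter-Glo reports live parasites; DMSO defines 0% and cell-free wells 100% effect.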
# [2] = system: H9c2 (rat cardiomyocytes); experiment: RoK assay, number of host cells nuclei (drug-related cytotoxicity, H9c2 output, Cmin_Tox); conditions: H9c2 host cells
# How it was run: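 Host-cell toxicity is read as DRAQ5-stained nuclei counts from automated confocal imaging of T. cruzi-infected H9c2 cells, tracked across time at each concentration. Cmin_Tox denotes the lowest compound concentration dropping host cell number under 50% of initial cell density.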
SMILES,Trypomastigotes pIC50 48 hours [1],Trypomastigotes pIC50 72 hours [1],"72 pIC50 (trypomastigotes, raw data of Fig 1D) [1]",48 pIC50 ([1]; figure 1A),72 pIC50 ([1]; figure 1A),72 pIC50 ([1]; figure 1B),Cmin_Tox [2] [µM]
Fc1ccc(OC2CC(NCc3cccc4cn[nH]c34)C2)cc1C(F)(F)F (stereo not shown) [TCMDC-143455],5,5,5,5,5,5,16.7
CNc1c(C(N)=O)c(-c2ccc3scnc3c2)nn1CC(F)(F)F.O=C(O)C(F)(F)F [TCMDC-143463],< 4.3,< 4.3,< 4.3,< 4.3,< 4.3,< 4.3,>50
OCCCNc1nc(Nc2ccncc2)nc2ccccc12 [TCMDC-143476],5.3,5.6,–,–,–,–,>50
Cc1nn(C)c(Cl)c1CN(Cc1cccnc1)Cc1ccsc1 [TCMDC-143477],< 4.3,< 4.3,< 4.3,< 4.3,< 4.3,< 4.3,>50
Cc1ccc(C)c(OC2CCN(C(=O)C(C)n3ccnc3)CC2)c1 (stereo not shown) [TCMDC-143481],< 4.3,< 4.3,< 4.3,< 4.3,< 4.3,< 4.3,>50
Cc1[nH]c2ccccc2c(=O)c1Cc1c(C)[nH]c2ccccc2c1=O [TCMDC-143490],5.7,4.8,–,–,–,–,>50
CNc1cc(C)nc(C2CN(C(=O)c3n[nH]c4ccccc34)CCO2)c1 (stereo not shown) [TCMDC-143494],5.9,5.5,–,–,–,–,>50
Cc1nccn1C1CCCN(C(=O)c2cc3c(F)cccc3s2)C1 (stereo not shown) [TCMDC-143498],4.7,4.7,4.7,4.7,4.7,4.7,>50
Cc1cc2cncn2c(C2CCCCN2C(=O)c2cccs2)n1 (stereo not shown) [TCMDC-143500],< 4.3,< 4.3,< 4.3,< 4.3,< 4.3,< 4.3,>50
Cn1cncc1CN1CCC2(CC1)COC(Cc1ccccc1)C2 (stereo not shown) [TCMDC-143502],< 4.3,< 4.3,< 4.3,< 4.3,< 4.3,< 4.3,>50
CN(Cc1ccc(C(N)=O)cc1)C(c1ccc(F)cc1)c1cccnc1 (stereo not shown) [TCMDC-143504],< 4.3,< 4.3,< 4.3,< 4.3,< 4.3,< 4.3,>50
O=C(C1CCCCC1)N1CCN(c2nnc(-c3ccccc3)c3ccccc23)CC1 [TCMDC-143511],< 4.3,< 4.3,< 4.3,< 4.3,< 4.3,< 4.3,>50
CN(C(=O)Nc1ccc2c(c1)CCN(C1CCC1)CC2)c1ccc(C#N)cc1.Cl [TCMDC-143526],< 4.3,< 4.3,< 4.3,< 4.3,< 4.3,< 4.3,>50
CC(CNS(=O)(=O)c1ccc(OC(F)F)cc1)c1ccc(NC(=O)c2ccncc2)cc1 (stereo not shown) [TCMDC-143535],4.6,4.4,–,–,–,–,>50
